Test results as given in ChEMBL document CHEMBL5500375, “Design, synthesis, and evaluation of N1,N3-dialkyldioxonaphthoimidazoliums as antibacterial agents against methicillin-resistant Staphylococcus aureus” (Eur J Med Chem, 2024).
Activity calls are given as the source filed them. No cut-off for these calls is given here.

How the values were obtained:
[1] = system: Staphylococcus aureus; test: Antibacterial agents against c5-resistant mutant of methicillin-resistant Staphylococcus aureus SA3 m3 assessed as absence of growth at 0.19 ug/ml measured after overnight incubation under anaerobic condition in presence of N-acetylcysteine by micro-dilution method; type: functional, organism-based; conditions: dose 0.19 µg/ml
[2] = system: Staphylococcus aureus; test: Antibacterial agents against c5-resistant mutant of methicillin-resistant Staphylococcus aureus SA3 m1 assessed as absence of growth measured after 18 hrs by micro-dilution method; type: functional
[3] = Therapeutic index, ratio of IC50 for HEK293 cells to MIC for […] activity against methicillin-resistant Staphylococcus aureus SA3; type: toxicity; conditions: human, read-out: TI
[4] = system: Staphylococcus aureus; test: Induction of ROS generation in methicillin-resistant Staphylococcus aureus SA3 using hydroxyphenyl fluorescein at 0.19 ug/ml under anaerobic condition; type: functional, organism-based; conditions: dose 0.19 µg/ml
[5] = system: Bacillus subtilis; test: Antibacterial agents against Bacillus subtilis PS380 assessed as absence of growth measured after 18 hrs by micro-dilution method; type: functional
[6] = system: Staphylococcus aureus; test: Induction of ROS generation in methicillin-resistant Staphylococcus aureus USA300 using hydroxyphenyl fluorescein at 0.09 ug/ml under anaerobic condition; type: functional, organism-based; conditions: dose 0.09 µg/ml, TDE = time-dependent effect
[7] = system: Staphylococcus aureus; test: Antibacterial agents against methicillin-resistant Staphylococcus aureus SA3 assessed as absence of growth measured after 18 hrs by micro-dilution method; type: functional
[8] = system: Staphylococcus aureus; test: Bactericidal activity against methicillin-resistant Staphylococcus aureus SA3 assessed as as reduction in colony forming unit at 0.78 ug/ml measured within 10 hrs by time-kill assay; type: functional; conditions: dose 0.78 µg/ml
[9] = system: Staphylococcus aureus; test: Anti-biofilim activity against methicillin-sensitive Staphylococcus aureus Newman assessed decrease in biofilm growth at 1 to 10 times of MIC concentration measured after 12 to 24 hrs incubation; type: functional, organism-based; conditions: time 12-24 hrs
[10] = system: Staphylococcus aureus; test: In vivo antibacterial activity against methicillin-resistant Staphylococcus aureus SA3 infected in dorsal thorax of Drosophila melanogaster strain Oregon R assessed as survival time of Drosophila at 0.2 mg/ml measured upto 72 hrs; type: functional
[11] = system: Staphylococcus aureus; test: Antibacterial agents against methicillin-resistant Staphylococcus aureus SA3 assessed as absence of growth at 0.19 ug/ml measured after overnight incubation under anaerobic condition in presence of N-acetylcysteine by micro-dilution method; type: functional, organism-based; conditions: dose 0.19 µg/ml
[12] = system: Staphylococcus aureus; test: Anti-biofilim activity against methicillin-resistant Staphylococcus aureus USA300 assessed decrease in biofilm growth at 1 to 10 times of MIC concentration measured after 12 to 24 hrs incubation; type: functional, organism-based; conditions: time 12-24 hrs
[13] = system: Staphylococcus aureus; test: Antibacterial agents against c5-resistant mutant of methicillin-resistant Staphylococcus aureus SA3 m1 assessed as absence of growth at 0.19 ug/ml measured after overnight incubation under anaerobic condition in presence of N-acetylcysteine by micro-dilution method; type: functional, organism-based; conditions: dose 0.19 µg/ml
[14] = system: Staphylococcus aureus; test: Antibacterial agents against methicillin-resistant Staphylococcus aureus USA300 assessed as absence of growth at 0.19 ug/ml measured after overnight incubation under anaerobic condition in presence of N-acetylcysteine by micro-dilution method; type: functional, organism-based; conditions: dose 0.19 µg/ml
[15] = system: Staphylococcus aureus; test: Antibacterial activity against methicillin-resistant Staphylococcus aureus SA3 assessed as resistance by measuring antibacterial activity after 11 to 20 passages at 0.39 ug/ml by emergence of bacterial resistance assay; type: functional, organism-based; conditions: dose 0.39 µg/ml
[16] = system: Staphylococcus aureus; test: In vivo antibacterial activity against methicillin-resistant Staphylococcus aureus SA3 infected in dorsal thorax of Drosophila melanogaster strain Oregon R assessed as median survival time of Drosophila at 0.04 to 0.2 mg/ml measured upto 72 hrs; type: functional; conditions: dose 0.04-0.2 mg/ml
[17] = system: Staphylococcus aureus; test: Bactericidal activity against methicillin-resistant Staphylococcus aureus SA3 assessed as as reduction in colony forming unit at 0.1 to 0.4 ug/ml measured after 2 to 4 hrs by time-kill assay; type: functional, organism-based; conditions: dose 0.1-0.4 µg/ml, time 2-4 hrs
[18] = system: Staphylococcus aureus; test: In vivo antibacterial activity against methicillin-resistant Staphylococcus aureus SA3 infected in dorsal thorax of Drosophila melanogaster strain Oregon R assessed as survival time of Drosophila at 0.04 mg/ml measured upto 72 hrs relative to control; type: functional, organism-based
[19] = system: Staphylococcus aureus; test: Antibacterial activity against methicillin-resistant Staphylococcus aureus SA3 assessed as absence of growth measured after 16 passages by emergence of bacterial resistance assay; type: functional
[20] = system: Staphylococcus aureus; test: Antibacterial activity against c5-resistant mutant of methicillin-resistant Staphylococcus aureus SA3 m6 assessed as resistance by measuring antibacterial activity after 20 passages at 200 ug/ml by emergence of bacterial resistance assay; type: functional, organism-based; conditions: dose 200.0 µg/ml
[21] = system: Staphylococcus aureus; test: Induction of ROS generation in methicillin-resistant Staphylococcus aureus SA3 using hydroxyphenyl fluorescein at 0.09 ug/ml under anaerobic condition; type: functional, organism-based; conditions: dose 0.09 µg/ml, TDE = time-dependent effect

## CCCCCCCCn1c2c([n+](Cc3ccccc3)c1C)C(=O)c1ccccc1C2=O.[Br-]
[1]
  Activity: inactive
[2]
  MIC: 6.25 µg/mL
[3]
  selectivity ratio: 0.8
[4]
  Activity: Active
[5]
  MIC: 0.39 µg/mL
[6]
  Activity: Tde
[7]
  MIC: 0.39 µg/mL
[8]
  Activity: 3 log10CFU/ml
[9]
  Activity: Active
[10]
  Time: 62 h
[11]
  Activity: inactive
[12]
  Activity: Active
[13]
  Activity: inactive
[14]
  Activity: inactive
[15]
  Activity: inactive
[16]
  Time: 56 h
[17]
  Activity: inactive
[18]
  Activity: Active
[19]
  MIC: 1.56 µg/mL
[20]
  Activity: inactive
[21]
  Activity: Tde
